Numbers after ± are expanded uncertainties.
Details: Crystal; DTA

Normal melting temperature: 65.0 ± 1 °C
Structure (SMILES): CCCCn1cc[n+](C)c1.[Cl-] [1-butyl-3-methylimidazolium chloride]

Source: the NIST ThermoML archive (doi:10.1016/j.tca.2010.01.023)
